Test results from the supplement of paper PMC13380429.
± gives the standard deviation of the averaged measurements.

Columns and labels:
Conditions in all cases: 72 h
HepG2 [1] = assay: drug sensitivity score (DSS) for viability; higher = more toxic; extreme values may be limits of the assay
U2OS [2] = assay: as above
Vero E6 [3] = assay: as above
Caco-2 [4] = assay: as above
Calu-3 [5] = assay: as above
HepG2 [6] = assay: cell viability relative to DMSO; higher = less toxic
U2OS [7] = assay: as above
Vero E6 [8] = assay: as above
Caco-2 [9] = assay: as above
Calu-3 [10] = assay: as above
HepG2 [11] = assay: relative viability EC50 (midpoint between 100% and the lowest measured viability); higher = less toxic
U2OS [12] = assay: as above
Vero E6 [13] = assay: as above
Caco-2 [14] = assay: as above
Calu-3 [15] = assay: as above

SMILES | drug sensitivity score (HepG2 [1]) | drug sensitivity score (U2OS [2]) | drug sensitivity score (Vero E6 [3]) | drug sensitivity score (Caco-2 [4]) | drug sensitivity score (Calu-3 [5]) | cell viability (HepG2 [6]; 1 nM) [%] | cell viability (HepG2 [6]; 10 nM) [%] | cell viability (HepG2 [6]; 100 nM) [%] | cell viability (HepG2 [6]; 1000 nM) [%] | cell viability (HepG2 [6]; 10000 nM) [%] | cell viability (U2OS [7]; 1 nM) [%] | cell viability (U2OS [7]; 10 nM) [%] | cell viability (U2OS [7]; 100 nM) [%] | cell viability (U2OS [7]; 1000 nM) [%] | cell viability (U2OS [7]; 10000 nM) [%] | cell viability (Vero E6 [8]; 1 nM) [%] | cell viability (Vero E6 [8]; 10 nM) [%] | cell viability (Vero E6 [8]; 100 nM) [%] | cell viability (Vero E6 [8]; 1000 nM) [%] | cell viability (Vero E6 [8]; 10000 nM) [%] | cell viability (Caco-2 [9]; 1 nM) [%] | cell viability (Caco-2 [9]; 10 nM) [%] | cell viability (Caco-2 [9]; 100 nM) [%] | cell viability (Caco-2 [9]; 1000 nM) [%] | cell viability (Caco-2 [9]; 10000 nM) [%] | cell viability (Calu-3 [10]; 1 nM) [%] | cell viability (Calu-3 [10]; 10 nM) [%] | cell viability (Calu-3 [10]; 100 nM) [%] | cell viability (Calu-3 [10]; 1000 nM) [%] | cell viability (Calu-3 [10]; 10000 nM) [%] | relative viability EC50 (HepG2 [11]) [µM] | relative viability EC50 (U2OS [12]) [µM] | relative viability EC50 (Vero E6 [13]) [µM] | relative viability EC50 (Caco-2 [14]) [µM] | relative viability EC50 (Calu-3 [15]) [µM]
Cc1cnc(C(=O)O)c[n+]1[O-] [acipimox] | 0 | 0 | 0 | 0 | 0 | 87.2 | 101 | 96.6 | 89.5 | 92.3 | 98.6 | 101 | 101 | 98.5 | 97 | 98.6 | 103 | 102 | 95.7 | 101 | 94.3 | 100 | 95.4 | 93.4 | 87.2 | 107 | 102 | 108 | 94.7 | 97.1 | > 10 | > 10 | > 10 | > 10 | > 10
CN(C)C/C=C/C(=O)Nc1cc2c(Nc3ccc(F)c(Cl)c3)ncnc2cc1O[C@H]1CCOC1 [afatinib] | 5 | 6.2 | 14.2 | 7.2 | 27.9 | 117 | 96.1 | 104 | 93.7 | 27.6 | 95.8 | 100 | 93.2 | 91.1 | 13.6 | 101 | 93.7 | 66 | 51.7 | 3.8 | 109 | 90.4 | 83 | 73.4 | 46.1 | 88.7 | 57.8 | 32.1 | 28.8 | 9.1 | 2.45 | 2.32 | 0.465 | 0.496 | 0.0181
Cc1ccccc1-n1c(CF)nc2ccc(N)cc2c1=O [afloqualone] | 0 | 0 | 0 | 0 | 0 | 100 | 94 | 100 | 83.3 | 93.7 | 98.3 | 97.9 | 102 | 98.6 | 102 | 105 | 98.2 | 100 | 102 | 92.4 | 98 | 102 | 104 | 101 | 110 | 98.1 | 96.8 | 101 | 108 | 109 | > 10 | > 10 | > 10 | > 10 | > 10
CC(=O)OCC(=O)[C@H]1CC[C@H]2[C@@H]3CC[C@H]4C[C@H](O)CC[C@]4(C)[C@H]3C(=O)C[C@]12C [alfadolone-acetate] | 0 | 0 | 0 | 0 | 0 | 98.7 | 101 | 109 | 104 | 102 | 105 | 97.7 | 98.7 | 103 | 100 | 106 | 104 | 98.3 | 104 | 97.3 | 99.9 | 102 | 102 | 101 | 100 | 99.9 | 101 | 99.8 | 111 | 91.3 | > 10 | > 10 | > 10 | > 10 | > 10
CC(=O)[C@H]1CC[C@H]2[C@@H]3CC[C@H]4C[C@H](O)CC[C@]4(C)[C@H]3CC[C@]12C [allopregnanolone] | 0 | 0 | 0 | 0 | 0 | 98.9 ± 6.8 | 92.4 ± 6.1 | 97.6 ± 7.2 | 99 ± 2.6 | 92 ± 3.5 | 98.8 ± 4.2 | 99.65 ± 0.92 | 98.55 ± 0.35 | 100 ± 5 | 97.7 ± 0.28 | 95.5 ± 3.5 | 101 ± 4.5 | 95 ± 3.5 | 97.9 ± 4.7 | 98.8 ± 4.5 | 98 ± 0.85 | 96.6 ± 1.1 | 96.2 ± 8.3 | 100 ± 3 | 103 ± 7.4 | 104 ± 5.9 | 102 ± 5.4 | 95.05 ± 0.64 | 104 ± 5.8 | 103 ± 3.8 | > 10 | > 10 | > 10 | > 10 | > 10
COC(c1ccccc1)(c1ccccc1)[C@H](Oc1nc(C)cc(C)n1)C(=O)O [ambrisentan] | 0 | 0 | 0 | 0 | 2.7 | 102 | 98.4 | 95.3 | 107 | 98.3 | 101 | 101 | 94.2 | 99.5 | 95.7 | 99.9 | 99.1 | 94.4 | 97.4 | 102 | 104 | 98.2 | 95.1 | 97.1 | 90.5 | 105 | 101 | 84.6 | 88.9 | 97 | > 10 | > 10 | > 10 | > 10 | > 10
Cc1c(N(C)C)c(=O)n(-c2ccccc2)n1C [amidopyrine] | 0 | 0 | 0 | 0.1 | 0 | 94.7 | 92.2 | 112 | 106 | 99.7 | 95.1 | 101 | 93.2 | 99.2 | 96.4 | 97.8 | 96.4 | 104 | 97.7 | 89.2 | 102 | 106 | 97.9 | 110 | 84 | 105 | 109 | 99.5 | 112 | 103 | > 10 | > 10 | > 10 | > 10 | > 10
CC(CC(C(N)=O)(c1ccccc1)c1ccccc1)N(C)C (stereo not given) [aminopentamide] | 0 | 0 | 0 | 0 | 0 | 100 | 99.6 | 95.2 | 103 | 104 | 95.8 | 94.9 | 101 | 101 | 101 | 95.9 | 96.1 | 91.5 | 98.3 | 104 | 95.3 | 90.2 | 97.1 | 92.8 | 98 | 110 | 97.8 | 104 | 92.2 | 98.9 | > 10 | > 10 | > 10 | > 10 | > 10
CC(C)CN(C[C@@H](O)[C@H](Cc1ccccc1)NC(=O)O[C@H]1CCOC1)S(=O)(=O)c1ccc(N)cc1 [amprenavir] | 0 | 0 | 0 | 0.6 | 0 | 114 | 88.9 | 92.7 | 96.5 | 87.7 | 106 | 97.8 | 96.5 | 98.6 | 101 | 110 | 102 | 93.9 | 101 | 93.4 | 103 | 100 | 106 | 87.2 | 87.7 | 101 | 102 | 99.3 | 97.7 | 107 | > 10 | > 10 | > 10 | > 10 | > 10
CCCc1ncc(C[n+]2ccccc2C)c(N)n1 [amprolium] | 0 | 0 | 0 | 0.9 | 0 | 96.4 | 103 | 89.2 | 97.1 | 92.1 | 101 | 97.2 | 102 | 100 | 104 | 100 | 108 | 92.8 | 112 | 102 | 112 | 94.9 | 88.5 | 90.5 | 99.9 | 104 | 97.2 | 99.5 | 101 | 107 | > 10 | > 10 | > 10 | > 10 | > 10
CCO[C@H]1O[C@@H]2O[C@@]3(C)CC[C@H]4[C@H](C)CC[C@@H]([C@H]1C)[C@@]24OO3 [artemotil] | 0.2 | 1 | 0 | 0 | 0 | 107 | 100 | 104 | 89.1 | 94.5 | 98.1 | 100 | 95.4 | 97.2 | 79.1 | 89.7 | 95.1 | 95.8 | 91.5 | 98 | 92.1 | 101 | 86.6 | 94.5 | 91.5 | 94.2 | 109 | 95.4 | 109 | 104 | > 10 | > 10 | > 10 | > 10 | > 10
CC(=O)Oc1ccccc1C(=O)O [aspirin] | 0 | 0 | 0 | 3.8 | 0 | 95.2 | 100 | 93.8 | 104 | 109 | 96.5 | 93.5 | 104 | 98.3 | 103 | 90.7 | 96.7 | 90 | 96.2 | 108 | 92.4 | 89.3 | 81 | 80 | 89.7 | 102 | 90.1 | 94.1 | 92.6 | 101 | > 10 | > 10 | > 10 | > 10 | > 10
CC(C)C(=O)OC[C@@]1(N=[N+]=[N-])O[C@@H](n2ccc(N)nc2=O)[C@H](OC(=O)C(C)C)[C@@H]1OC(=O)C(C)C [balapiravir] | 0 | 0 | 0 | 0 | 0 | 95.6 | 102 | 92.6 | 102 | 92.4 | 99.6 | 94.9 | 96 | 95.5 | 94.6 | 98.6 | 92.8 | 93.4 | 98.4 | 90.7 | 103 | 87 | 100 | 98.7 | 88.9 | 99 | 99.1 | 97 | 100 | 102 | > 10 | > 10 | > 10 | > 10 | > 10
CC(C)(O)CC(=O)O [beta-hydroxy-beta-methylbutyrate] | 0 | 0 | 0 | 0 | 0 | 91.8 | 94.3 | 101 | 104 | 93.3 | 105 | 99.5 | 98.1 | 95.9 | 99.5 | 106 | 108 | 101 | 99.5 | 100 | 102 | 92.2 | 99.4 | 92.6 | 97.2 | 98.7 | 100 | 105 | 102 | 113 | > 10 | > 10 | > 10 | > 10 | > 10
